Results reported in patent publication EP0343954B1, “Aromatic steroid 5-alpha-reductase inhibitors” (SMITHKLINE BEECHAM CORPORATION, priority 1988, dated 1989).

T1: human steroid 5-α-reductase (Homo sapiens, UniProt P31213)
T1 construct: an aliquot of prostatic particulate solution to a final volume of 0.5 ml of 50 mM sodium citrate, pH 5.0; from tissue; host or cells: hyperplastic human prostate; washed 140,000 x g particulate fraction
T1 sequence (P31213 1-254): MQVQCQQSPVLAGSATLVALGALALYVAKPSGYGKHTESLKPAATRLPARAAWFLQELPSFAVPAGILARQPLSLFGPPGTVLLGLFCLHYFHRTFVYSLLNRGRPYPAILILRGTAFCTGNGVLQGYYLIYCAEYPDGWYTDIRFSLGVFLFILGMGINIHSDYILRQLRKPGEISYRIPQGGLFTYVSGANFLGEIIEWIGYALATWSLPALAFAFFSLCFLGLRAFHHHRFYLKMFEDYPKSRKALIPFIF

B1: human steroid 5-α-reductase (Homo sapiens) (protein)
chain: T1 sequence (P31213 1-254)

Molecular target: T1, human steroid 5-α-reductase
Test: Inhibition of human prostatic steroid 5-α-reductase: [14C]-testosterone conversion by prostatic particulate, Dixon plot
Format: biochemical
Conditions: not given
Description: The potency of several compounds of the invention was tested for potency in inhibiting human steroid 5-α-reductase using tissue from hyperplastic human prostates. In determining potency in inhibiting the human enzyme, the following procedure was employed:
Frozen human prostates were thawed and minced into small pieces ( 5mm³). The tissue was homogenized in 3 to 5 volumes of 20 mM potassium phosphate, pH 6.5, buffer containing 0.33 M sucrose, 1 mM dithiothreitol, and 50 µM NADPH with a Brinkmann Polytron (Sybron Corporation, Westbury, New York). The solution was subjected to sonication for 3 to 5 minutes with a Sonifier (Branson Sonic Power Co.) followed by hand homogenization in a glass-to-glass Dounce homogenizer (Kontes Glass Company, Vineland, New Jersey).
Prostatic particles were obtained by differential centrifugation at 600 or 1000 x g for 20 minutes and 140,000 x g for 60 minutes at 4°C. The pellet obtained from the 140,000 x g centrifugation was washed with 5 to 10 tissue volumes of the buffer described above and recentrifuged at 140,000 x g. The resulting pellet was suspended in 20 mM potassium phosphate buffer, pH 6.5, containing 20% glycerol, 1 mM dithiothreitol, and 50 µM NADPH. The suspended particulate solution was stored at -80°C.
To each tube was added buffer, 20 µl of 10 mM NADPH and an aliquot of prostatic particulate solution to a final volume of 0.5 ml of 50 mM sodium citrate, pH 5.0. […] The organic layer was removed to a second test tube and evaporated to dryness in vacuo. The residue was dissolved in 20 to 30 µl chloroform, spotted on an individual lane of a 20 x 20 cm prechannelled silica gel TLC plate (Si 250F-PA, Baker Chemical) and developed twice with acetone:chloroform (1:9). The radiochemical content in the bands of the substrate and the products was determined with a BIOSCAN Imaging Scanner (Bioscan, Inc., Washington, D.C.). The percent of recovered radiolabel converted to product was calculated, from which enzyme activity was determined.
The experimentally obtained data was computer fitted to a linear function by plotting the reciprocal of the enzyme activity (1/velocity) against the variable inhibitor concentration (Dixon, M. (1953), Biochem. J., 55, 170).

Molecule | Ki [nM]
Cc1cc2c(cc1C(=O)O)CC[C@@H]1[C@@H]2CC[C@]2(C)[C@@H](C(=O)N(C(C)C)C(C)C)CC[C@@H]12 [17β-(N,N-Diisopropylcarboxamide)-2-methyl-estr-1,3,5(10)-triene-3-carboxylic Acid] | 57
CC(C)N(C(=O)[C@H]1CC[C@H]2[C@@H]3C=Cc4cc(C(=O)O)ccc4[C@H]3CC[C@]12C)C(C)C [17β-(N,N-Diisopropylcarboxamide)-estr-1,3,5(10),6-tetraene-3-carboxylic Acid] | 30
CC(C)N(C(=O)C1=CC[C@H]2[C@@H]3CCc4cc(C(=O)O)ccc4[C@H]3CC[C@]12C)C(C)C [17β-(N,N-Diisopropylcarboxamide)-estr-1,3,5(10),16-tetraene-3-carboxylic Acid] | 70
CC(C)N(C(=O)[C@H]1CC[C@H]2[C@@H]3CCc4cc(C(=O)O)ccc4[C@H]3CC[C@]12C)C(C)C [17β-(N,N-Diisopropylcarboxamide)-estr-1,3,5(10)-triene-3-carboxylic Acid] | 19
CC(C)N(C(=O)[C@H]1CC[C@H]2[C@@H]3CCc4cc(CC(=O)O)ccc4[C@H]3CC[C@]12C)C(C)C [17β-(N,N-diisopropylcarboxamide)-estr-1,3,5(10)-triene-3-acetic acid] | 20
Cc1c(C(=O)O)ccc2c1CC[C@@H]1[C@@H]2CC[C@]2(C)[C@@H](C(=O)N(C(C)C)C(C)C)CC[C@@H]12 [17β-(N-N-Diisopropylcarboxamide)-4-methyl-estr-1,3,5(10)-triene-3-carboxylic Acid] | 270
CC(C)N(C(=O)[C@H]1CC[C@H]2c3ccc4cc(C(=O)O)ccc4c3CC[C@]12C)C(C)C [17β-(N-N-Diisopropylcarboxamide)-estr-1,3,5(10),-6,8-pentaene-3-carboxylic Acid] | 40
CC(C)(C)NC(=O)C1=CC[C@H]2[C@@H]3CCc4cc(C(=O)O)ccc4[C@H]3CC[C@]12C [17β-(N-tert-Butylcarboxamide)-estr-1,3,5(10),-16-tetraene-3-carboxylic Acid] | 60
CC(C)(C)NC(=O)[C@H]1CC[C@H]2[C@@H]3CCc4cc(C(=O)O)ccc4[C@H]3CC[C@]12C [17β-(N-tert-Butylcarboxamide)-estr-1,3,5(10)-triene-3-carboxylic Acid] | 43

Substrate: C[C@]12CC[C@H]3[C@@H](CCC4=CC(=O)CC[C@@]43C)[C@@H]1CC[C@@H]2O
Test: purified protein, by the assay type
Conditions: other: substrate of steroid 5-α-reductase, used in equation 1

Molecule | Km [µM]
B1 | 4.5

System: steroid 5-α-reductase
Test: In vivo inhibition of steroid 5-α-reductase: DHT levels in rat ventral prostate (HPLC, radioimmunoassay)
Design: species or system Male Charles River CD rats
Conditions: rats, dose of 20mg/kg, four hours after compound administration, p<.15
Description: One of the compounds of the invention, 17β-(N-tert-butylcarboxamide)-estr-1,3,5(10)-triene-3-carboxylic acid, also was tested for its in vivo potency in inhibiting steroid 5-α-reductase activity. Male Charles River CD rats, 48 days old, weighing approximately 200 gm were administered this compound dissolved in propylene glycol and diluted in normal saline. Following compound administration the animals were sacrificed, the ventral prostates were excised, and DHT levels were measured by the following procedure.
Prostate tissue was excised, trimmed, weighed, minced and washed with phosphate buffer. The tissue then was homogenized in phosphate buffer and extracted by addition of ethyl acetate and mixing on an orbital mixer for forty-five minutes. The ethyl acetate was evaporated, the residue was reconstituted in ethanol, and was centrifuge filtered using […] filter paper. The components then were separated using reverse-phase HPLC collecting the DHT fraction. The fraction was reduced to dryness and reconstituted in standard DHT assay buffer available from Amersham. DHT levels then were measured using standard techniques such as radioimmunoassay.
In the compound-treated rats, prostatic DHT levels were decreased forty percent relative to vehicle-treated controls (p<.15) four hours after compound administration at a dose of 20mg/kg.

Molecule | prostatic DHT levels decreased relative to vehicle-treated controls
CC(C)(C)NC(=O)[C@H]1CC[C@H]2[C@@H]3CCc4cc(C(=O)O)ccc4[C@H]3CC[C@]12C [17β-(N-tert-Butylcarboxamide)-estr-1,3,5(10)-triene-3-carboxylic Acid] | forty
